From paper PMC4019984, “Kinase and channel activity of TRPM6 are co-ordinated by a dimerization motif and pocket interaction” (Biochemical Journal, 2014)

Columns and labels:
[1] = system: GST-tagged TRPM6-(1730–end) Q1832K; assay: Peptide pull-down, Q1832K mutant; assay type: binding, human; settings: HEK-293 lysate, 3 μg peptide, 4°C, anti-GST immunoblot
Procedure: The peptides biotin-C6-[…]-TIPFTPVQLFAGEEITV (wild-type) and biotin-C6-LKSPQE-[…] (mutant) were purchased from GL Biochem. For a peptide pull-down, 1–5 mg of lysate was incubated with 3 μg of the respective peptide for 10 min at 4°C under gentle agitation, followed by 5 min of incubation with 10–20 μl of streptavidin beads at 4°C. The immunoprecipitates were washed three times with lysis buffer containing 0.15 M NaCl and then twice with buffer A. Proteins were eluted by resuspending washed immunoprecipitates in 30 μl of SDS sample buffer. […]
Figure 3 Analysis of the dimerization pocket residues (A) Structural model of TRPM6 based on TRPM7 α-kinase depicting the binding of Leu^1718 and Leu^1721 to other residues in the α-kinase domain. […] The samples were analysed by immunoblotting with anti-GST antibody (top panel). […] (C) Fluorescence polarization analysis of the dimerization motif peptide with E. coli purified GST-tagged TRPM6-(1730–end) and indicated mutants. […] Proteins were separated by SDS/PAGE, stained with Coomassie Blue (top and middle panels) and MBP phosphorylation was detected by autoradiography (bottom panel). […] Proteins were separated by SDS/PAGE, stained with Coomassie Blue (top and middle gels) and MBP phosphorylation was detected by autoradiography (bottom gel). […]

[2] = system: GST-tagged TRPM6-(1700–end); assay: Phosphorylation site mapping of the dimerization peptide by TRPM6 kinase; assay type: biochemical, human; settings: 500 μM biotinylated peptide, in vitro, trypsin digest, HPLC, Edman solid-phase sequencing
Procedure: A kinase reaction was set up in a volume of 20 μl, with the wild-type biotinylated dimerization peptide and the active (residues 1700–end) kinase fragment in buffer A containing 0.1% 2-mercaptoethanol, 10 mM MgCl2 and 0.1 mM [γ-^32P]ATP (~1000 cpm·pmol^−1). Assays were carried out for 30 min at 30°C with shaking at […] The reaction was terminated by the addition of LDS sample buffer. DTT was added to a final concentration of 10 mM, the samples were boiled, then alkylated with 50 mM iodoacetamide and subsequently resolved by a Bis-Tris 4–12% polyacrylamide gel, which was stained with Colloidal Coomassie Blue. […] Following tryptic digestion, more than 95% of the ^32P radioactivity incorporated in the gel bands was recovered, and the samples were chromatographed on a Vydac 218TP5215 C18 column (Separations Group) equilibrated in 0.1% trifluoroacetic acid in water. The column was developed with a linear acetonitrile gradient at a flow rate of 0.2 ml/min and fractions of 0.1 ml were collected and analysed for ^32P radioactivity by Cerenkov counting. Isolated phosphopeptides were analysed by MS analysis as follows. […] The five most intense ions, above a specified minimum signal threshold, based on a low-resolution (R=20000) preview of the survey scan, were fragmented by collision-induced dissociation and recorded in the linear ion trap (target value of 5000). […]

biotin-C6-LKSPQEPHHHYSAIERNNLMRLSQ-TIPFTPVQLFAGEEITV [biotinylated dimerization motif peptide, biotin-C6 wild-type dimerization motif peptide; conjugated to streptavidin–Sepharose]
binding to biotinylated dimerization motif peptide (pull-down) [1]: abolished binding to the peptide | phosphorylation site in dimerization motif peptide [2]: threonine at position 22
